From patent US7601746B2 (Shionogi & Co., Ltd., priority 2003, dated 2009)

Biological target: T1, human TPO receptor (hTPOR) (Homo sapiens, UniProt P40238)
T1 construct: expressed in transfected cells; host or cells: BaF-B03 (murine IL-3 dependent cell line)
T1 sequence (P40238 26-635): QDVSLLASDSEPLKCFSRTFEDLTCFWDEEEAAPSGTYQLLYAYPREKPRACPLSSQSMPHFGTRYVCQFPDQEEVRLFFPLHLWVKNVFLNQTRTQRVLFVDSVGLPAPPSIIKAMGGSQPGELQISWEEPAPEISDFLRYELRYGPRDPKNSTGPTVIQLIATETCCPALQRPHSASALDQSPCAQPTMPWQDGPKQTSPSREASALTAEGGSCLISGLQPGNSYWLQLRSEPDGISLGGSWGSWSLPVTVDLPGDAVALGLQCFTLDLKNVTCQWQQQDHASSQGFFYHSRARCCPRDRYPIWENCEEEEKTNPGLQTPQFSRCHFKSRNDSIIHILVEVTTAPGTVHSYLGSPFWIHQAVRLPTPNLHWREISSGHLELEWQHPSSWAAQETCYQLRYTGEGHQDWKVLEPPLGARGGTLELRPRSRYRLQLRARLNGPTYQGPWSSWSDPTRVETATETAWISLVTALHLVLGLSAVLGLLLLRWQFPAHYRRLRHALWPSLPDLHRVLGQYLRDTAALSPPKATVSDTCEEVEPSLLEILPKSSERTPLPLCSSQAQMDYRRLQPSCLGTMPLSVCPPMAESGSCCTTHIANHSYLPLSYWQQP
Test: Thrombopoietic activity: proliferation of TPO dependent BaF/hTPOR cells (WST-1, absorbance at 450 nm)
Assay type: cell-based
Settings: 20 h + 4 h WST-1, ED50 = half concentration of the concentration showing the maximum thrombopoietic activity
Summary of the method: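 Proliferation read-out: WST-1 absorbance at 450 nm after 20 h compound exposure plus 4 h reagent, using IL-3-deprived BaF/hTPOR cells (5×10^4 per well) dependent on human TPO receptor signalling. ED50 defined as half the concentration producing maximal activity.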

EC50 (Table 2) [µM] | EC50 (Table 1) [µM] | SMILES
0.0243 | – | CO/C(=C\c1c(Cl)cc(C(=O)Nc2nc(-c3cccc(CCCOCC(C)(C)C)c3)c(OC)s2)cc1Cl)C(=O)O [Compound B1901, (Z)-3-[2,6-dichloro-4-(4-{3-[3-(2,2-dimethylpropyloxy)propyl]phenyl}-5-methyloxythiazol-2-ylcarbamoyl)phenyl]-2-methyloxyacrylic acid]
0.0246 | – | CO/C(=C\c1c(F)cc(C(=O)Nc2nc(-c3cccc(CCCOCC(C)(C)C)c3F)c(OC)s2)cc1F)C(=O)O [Compound B1904, (Z)-3-[4-(4-{3-[3-(2,2-dimethylpropyloxy)propyl]-2-fluorophenyl}-5-methyloxythiazol-2-ylcarbamoyl)-2,6-difluorophenyl]-2-methyloxyacrylic acid]
0.0263 | – | CO/C(=C\c1c(F)cc(C(=O)Nc2nc(-c3cccc(C(OC)C(C)(C)C)c3F)c(OC)s2)cc1F)C(=O)O (stereo not drawn) [Compound B1908, (Z)-3-(2,6-difluoro-4-{4-[2-fluoro-3-(1-methyloxy-2,2-dimethylpropyl)phenyl]-5-methyloxythiazol-2-ylcarbamoyl}phenyl)-2-methyloxyacrylic acid]
0.0259 | – | CO/C(=C\c1c(Cl)cc(C(=O)Nc2nc(-c3cccc(C(OC)C(C)(C)C)c3F)c(OC)s2)cc1Cl)C(=O)O (stereo not drawn) [Compound B1909, (Z)-3-(2,6-dichloro-4-{4-[2-fluoro-3-(1-methyloxy-2,2-dimethylpropyl)phenyl]-5-methyloxythiazol-2-ylcarbamoyl}phenyl)-2-methyloxyacrylic acid]
– | 0.0145 | COc1c(CCOCCCC(C)C)cccc1-c1csc(NC(=O)c2cc(F)c(/C=C(\C)C(=O)O)c(F)c2)n1 [Compound B1920, (E)-3-[2,6-difluoro-4-(4-{2-methyloxy-3-[2-(4-methylpentyloxy)ethyl]phenyl}thiazol-2-ylcarbamoyl)phenyl)-2-methylacrylic acid]
– | 0.0136 | COc1c(CCOCCCC(C)C)cccc1-c1csc(NC(=O)c2cc(Cl)c(/C=C(\C)C(=O)O)c(Cl)c2)n1 [Compound B1922, (E)-3-[2,6-dichloro-4-(4-{2-methyloxy-3-[2-(4-methylpentyloxy)ethyl]phenyl}thiazol-2-ylcarbamoyl)phenyl)-2-methylacrylic acid]
0.0202 | – | CO/C(=C\c1c(Cl)cc(C(=O)Nc2nc(-c3cccc(CCOCCCC(C)C)c3OC)cs2)cc1Cl)C(=O)O [Compound B1923, (Z)-3-[2,6-dichloro-4-(4-{2-methyloxy-3-[2-(4-methylpentyloxy)ethyl]phenyl}thiazol-2-ylcarbamoyl)phenyl)-2-methyloxyacrylic acid]
0.0206 | – | CCCCCOCCc1cccc(-c2csc(NC(=O)c3cc(F)c(/C=C(\C)C(=O)O)c(F)c3)n2)c1OC [Compound B1924, (E)-3-(2,6-difluoro-4-{4-[2-methyloxy-3-(2-pentyloxyethyl)phenyl]thiazol-2-ylcarbamoyl)phenyl)-2-methylacrylic acid]
– | 0.0184 | CCCCCOCCc1cccc(-c2csc(NC(=O)c3cc(Cl)c(/C=C(\C)C(=O)O)c(Cl)c3)n2)c1OC [Compound B1925, (E)-3-(2,6-dichloro-4-{4-[2-methyloxy-3-(2-pentyloxyethyl)phenyl]thiazol-2-ylcarbamoyl)phenyl)-2-methylacrylic acid]
– | 0.0156 | CCCCCCOCCc1cccc(-c2csc(NC(=O)c3cc(F)c(/C=C(\C)C(=O)O)c(F)c3)n2)c1OC [Compound B1926, (E)-3-(2,6-difluoro-4-{4-[3-(2-hexyloxyethyl)-2-methyloxyphenyl]thiazol-2-ylcarbamoyl)phenyl)-2-methylacrylic acid]

The remaining lines, values behind:

SMILES | EC50 (Table 2) [µM] | EC50 (Table 1) [µM]
COc1c(CCCOCC2CCC2)cccc1-c1csc(NC(=O)c2cc(Cl)c(/C=C(\C)C(=O)O)c(Cl)c2)n1 [Compound B1855, (E)-3-(2,6-dichloro-4-{4-[3-(3-cyclobutylmethyloxypropyl)-2-methyloxyphenyl]thiazol-2-ylcarbamoyl}phenyl)-2-methylacrylic acid] | 0.0213 | –
CCCCCC(OC)c1cccc(-c2nc(NC(=O)c3cc(Cl)c(/C=C(\OC)C(=O)O)c(Cl)c3)sc2OC)c1F (stereo not drawn) [Compound B1861, (Z)-3-(2,6-dichloro-4-{4-[2-fluoro-3-(1-methyloxyhexyl)phenyl]-5-methyoxythiazol-2-ylcarbamoyl}phenyl)-2-methyloxyacrylic acid] | 0.0228 | –
CCCOCCCc1cccc(-c2nc(NC(=O)c3cc(Cl)c(/C=C(\C)C(=O)O)c(Cl)c3)sc2OC)c1 [Compound B1863, (E)-3-(2,6-dichloro-4-{5-methyloxy-4-[3-(3-propyloxypropyl)phenyl]thiazol-2-ylcarbamoyl}phenyl)-2-methylacrylic acid] | 0.0228 | –
COc1c(CCCOCC(C)C)cccc1-c1csc(NC(=O)c2cc(F)c(/C=C(\C)C(=O)O)c(F)c2)n1 [Compound B1877, (E)-3-(2,6-difluoro-4-{4-[3-(3-isobuyloxypropyl)-2-methyloxyphenyl]thiazol-2-ylcarbamoyl}phenyl)-2-methylacrylic acid] | – | 0.013
COc1c(CCCOCC(C)C)cccc1-c1csc(NC(=O)c2cc(Cl)c(/C=C(\C)C(=O)O)c(Cl)c2)n1 [Compound B1878, (E)-3-(2,6-dichloro-4-{4-[3-(3-isobuyloxypropyl)-2-methyloxyphenyl]thiazol-2-ylcarbamoyl}phenyl)-2-methylacrylic acid] | 0.0212 | –
CCCCCOCc1cccc(-c2csc(NC(=O)c3cc(F)c(/C=C(\C)C(=O)O)c(F)c3)n2)c1OC [Compound B1884] | – | 0.0169
CCCCCOCc1cccc(-c2csc(NC(=O)c3cc(Cl)c(/C=C(\C)C(=O)O)c(Cl)c3)n2)c1OC [Compound B1886] | 0.0221 | –
CCC(CC)OCc1cccc(-c2csc(NC(=O)c3cc(F)c(/C=C(\C)C(=O)O)c(F)c3)n2)c1OC [Compound B1890, (E)-3-(4-{4-[3-(1-ethylpropyloxymethyl)-2-methyloxyphenyl]thiazol-2-ylcarbamoyl}-2,6-difluorophenyl)-2-methylacrylic acid] | – | 0.0181
CCC(CC)OCc1cccc(-c2csc(NC(=O)c3cc(Cl)c(/C=C(\C)C(=O)O)c(Cl)c3)n2)c1OC [Compound B1892, (E)-3-(2,6-dichloro-4-{4-[3-(1-ethylpropyloxymethyl)-2-methyloxyphenyl]thiazol-2-ylcarbamoyl}phenyl)-2-methylacrylic acid] | – | 0.0116
CO/C(=C\c1c(F)cc(C(=O)Nc2nc(-c3cccc(CCCOCC(C)(C)C)c3)c(OC)s2)cc1F)C(=O)O [Compound B1900, (Z)-3-[4-(4-{3-[3-(2,2-dimethylpropyloxy)propyl]phenyl}-5-methyloxythiazol-2-ylcarbamoyl)-2,6-difluorophenyl]-2-methyloxyacrylic acid] | 0.0232 | –
CO/C(=C\c1c(Cl)cc(C(=O)Nc2nc(-c3cccc(CCCOCC(C)(C)C)c3F)c(OC)s2)cc1Cl)C(=O)O [Compound B1905] | 0.0267 | –
COc1c(OCCC2CCCCC2)cccc1-c1csc(NC(=O)c2cc(F)c(/C=C(\C)C(=O)O)c(F)c2)n1 [Compound B1916] | – | 0.0129
COc1c(OCCC2CCCCC2)cccc1-c1csc(NC(=O)c2cc(Cl)c(/C=C(\C)C(=O)O)c(Cl)c2)n1 [Compound B1918] | 0.021 | –
CO/C(=C\c1c(Cl)cc(C(=O)Nc2nc(-c3cccc(OCCC4CCCCC4)c3OC)cs2)cc1Cl)C(=O)O [Compound B1919] | 0.0279 | –
